Results: PubChem BioAssay AID192 (DTP/NCI, 2004)
Values joined by “and” are separate entries in the source; they are usually repeats but may differ in a detail not shown here. Identical values can stand only once. Inconclusive results and toxic doses are left out.

System: BDF1 mice, B16 melanoma ip, median survival T/C
Assay: NCI In Vivo Anticancer Drug Screen. Data for tumor model B16 Melanoma (intraperitoneal) in B6D2F1 (BDF1) mice
Details: endpoint: median survival time, higher = longer survival
Description: The antitumor activity of compounds was measured in mice bearing transplantable tumors. Survival or tumor size were measured and the results are expressed as the measurement made in the treated group (T) divided by the measurement made in the vehicle treated control group (C). The tumor model used in this assay is B16 Melanoma (intraperitoneal) in B6D2F1 (BDF1) mice

[1] = dose: 100.0 mg/kg/injection, schedule: Q01DX009 (ip), vehicle: Klucel (hydroxypropylcellulose) (HPC)
[2] = dose: 200.0 mg/kg/injection, schedule: Q01DX009 (ip), vehicle: Klucel (hydroxypropylcellulose) (HPC)
[3] = dose: 400.0 mg/kg/injection, schedule: Q01DX009 (ip), vehicle: Klucel (hydroxypropylcellulose) (HPC)
[4] = dose: 50.0 mg/kg/injection, schedule: Q01DX009 (ip), vehicle: saline with Tween-80
[5] = dose: 100.0 mg/kg/injection, schedule: Q01DX009 (ip), vehicle: saline with Tween-80
[6] = dose: 12.5 mg/kg/injection, schedule: Q01DX009 (ip), vehicle: saline with Tween-80
[7] = dose: 25.0 mg/kg/injection, schedule: Q01DX009 (ip), vehicle: saline with Tween-80
[8] = dose: 6.25 mg/kg/injection, schedule: Q01DX009 (ip), vehicle: saline with Tween-80
[9] = dose: 25.0 mg/kg/injection, schedule: Q01DX009 (ip), vehicle: saline
[10] = dose: 12.5 mg/kg/injection, schedule: Q01DX009 (ip), vehicle: Klucel (hydroxypropylcellulose) (HPC)
[11] = dose: 25.0 mg/kg/injection, schedule: Q01DX009 (ip), vehicle: Klucel (hydroxypropylcellulose) (HPC)
[12] = dose: 50.0 mg/kg/injection, schedule: Q01DX009 (ip), vehicle: Klucel (hydroxypropylcellulose) (HPC)
[13] = dose: 12.5 mg/kg/injection, schedule: Q01DX009 (ip), vehicle: saline

SMILES: C[n+]1c(/C=C\C=C\N2CCCCC2)sc2ccccc21
- T/C (dose: 0.06 mg/kg/injection, schedule: Q01DX009 (ip), vehicle: Klucel (hydroxypropylcellulose) (HPC)): 101 % of control
- T/C (dose: 0.12 mg/kg/injection, schedule: Q01DX009 (ip), vehicle: Klucel (hydroxypropylcellulose) (HPC)): 105 % of control
- T/C (dose: 0.25 mg/kg/injection, schedule: Q01DX009 (ip), vehicle: Klucel (hydroxypropylcellulose) (HPC)): 101 % of control
- T/C (dose: 0.5 mg/kg/injection, schedule: Q01DX009 (ip), vehicle: Klucel (hydroxypropylcellulose) (HPC)): 95 % of control
- T/C (dose: 0.63 mg/kg/injection, schedule: Q01DX009 (ip), vehicle: Klucel (hydroxypropylcellulose) (HPC)): 103 % of control
- T/C (dose: 1.0 mg/kg/injection, schedule: Q01DX009 (ip), vehicle: Klucel (hydroxypropylcellulose) (HPC)): 101 % of control
- T/C (dose: 1.25 mg/kg/injection, schedule: Q01DX009 (ip), vehicle: Klucel (hydroxypropylcellulose) (HPC)): 101 % of control
- T/C (dose: 2.0 mg/kg/injection, schedule: Q01DX009 (ip), vehicle: Klucel (hydroxypropylcellulose) (HPC)): 105 % of control
- T/C (dose: 2.5 mg/kg/injection, schedule: Q01DX009 (ip), vehicle: Klucel (hydroxypropylcellulose) (HPC)): 109 % of control

SMILES: CC(=N\O)/C(C)=N/O.CC(=N\O)/C(C)=N/O.CCCC1CC[N-]CC1.CCCC1CC[N-]CC1.CCCC1CC[N-]CC1.CCCC1CC[N-]CC1.[Cl-].[Cl-].[Cl][Rh][Cl].[Rh+3]
- T/C (dose: 0.19 mg/kg/injection, schedule: Q01DX009 (ip), vehicle: saline): 104 % of control
- T/C (dose: 0.38 mg/kg/injection, schedule: Q01DX009 (ip), vehicle: saline): 107 % of control
- T/C (dose: 0.75 mg/kg/injection, schedule: Q01DX009 (ip), vehicle: saline): 104 % of control
- T/C (dose: 1.5 mg/kg/injection, schedule: Q01DX009 (ip), vehicle: saline): 103 % of control
- T/C (dose: 3.0 mg/kg/injection, schedule: Q01DX009 (ip), vehicle: saline): 105 % of control

SMILES: CCN(C(=O)Nc1cccc2ccccc12)c1ccccc1
- T/C [1]: 102 % of control
- T/C [2]: 88 % of control
- T/C [3]: 91 % of control

SMILES: CCOc1ccc(NC(=O)Nc2cccc(Cl)c2)cc1
- T/C [1]: 100 % of control
- T/C [2]: 93 % of control
- T/C [3]: 96 % of control

SMILES: O=C(OC1COC(n2c(=O)oc3ccc(F)cc32)C(OC(=O)c2ccccc2)C1OC(=O)c1ccccc1)c1ccccc1 (stereo unspecified)
- T/C [4]: 93 % of control
- T/C [1]: 89 % of control
- T/C [5]: 92 % of control
- T/C [2]: 86 % of control
- T/C (dose: 200.0 mg/kg/injection, schedule: Q01DX009 (ip), vehicle: saline with Tween-80): 107 % of control
- T/C (dose: 400.0 mg/kg/injection, schedule: Q01DX009 (ip), vehicle: saline with Tween-80): 90 % of control

SMILES: CCCC/C=C/CCCCCCCC(=O)OCCCCCCCCCCCCCCCC
- T/C [6]: 100 % of control
- T/C [7]: 101 % of control
- T/C [4]: 94 % of control
- T/C [5]: 94 % of control

SMILES: COc1cccc2c1C(=O)c1c(O)c3c(c(O)c1C2=O)C[C@@](O)(C(=O)CO)C[C@@H]3OC1CC(N2CCOCC2C#N)C(O)C(C)O1 (stereo partly specified)
- T/C (dose: 37.5 micrograms/kg/injection, schedule: Q01DX001 (ip), vehicle: water): 161 % of control

SMILES: COc1ccc([I+]c2cccc(Cl)c2)cc1Cl
- T/C [8]: 112 % of control
- T/C [6]: 112 % of control
- T/C [7]: 104 % of control

SMILES: Cc1ccc(N)c(Br)c1
- T/C [7]: 88 % of control
- T/C [4]: 88 % of control
- T/C [5]: 91 % of control

SMILES: COc1cccc(NC(=O)Nc2ccccc2)c1
- T/C [1]: 110 % of control
- T/C [2]: 101 % of control
- T/C [3]: 88 % of control

SMILES: CC(=O)CC(=O)Nc1cccc(O)c1
- T/C [1]: 92 % of control
- T/C [2]: 92 % of control
- T/C [3]: 86 % of control

SMILES: CCCNCCN
- T/C [9]: 109 % of control
- T/C (dose: 50.0 mg/kg/injection, schedule: Q01DX009 (ip), vehicle: saline): 116 % of control
- T/C (dose: 100.0 mg/kg/injection, schedule: Q01DX009 (ip), vehicle: saline): 96 % of control

SMILES: COc1cccc2c1C(=O)c1c(O)c3c(c(O)c1C2=O)C[C@@](O)(C(=O)CN1CCOCC1)C[C@@H]3OC1CC(N)C(O)C(C)O1 (stereo partly specified)
- T/C (dose: 3.13 mg/kg/injection, schedule: Q01DX009 (ip), vehicle: water): 159 % of control
- T/C (dose: 6.25 mg/kg/injection, schedule: Q01DX009 (ip), vehicle: water): 153 % of control
- T/C (dose: 12.5 mg/kg/injection, schedule: Q01DX009 (ip), vehicle: water): 157 % of control
- T/C (dose: 25.0 mg/kg/injection, schedule: Q01DX009 (ip), vehicle: water): 157 % of control

SMILES: COc1cc2c(c(OC)c1OC)-c1ccc(OC)c(=O)cc1[C@@H](NC(C)=O)CC2
- T/C (dose: 0.12 mg/kg/injection, schedule: Q01DX009 (ip), vehicle: saline): 123 % of control
- T/C (dose: 0.13 mg/kg/injection, schedule: Q01DX009 (ip), vehicle: saline): 120 % of control
- T/C (dose: 0.25 mg/kg/injection, schedule: Q01DX009 (ip), vehicle: water): 179 % of control
- T/C (dose: 0.4 mg/kg/injection, schedule: Q01DX009 (ip), vehicle: saline): 152 % of control
- T/C (dose: 0.5 mg/kg/injection, schedule: Q01DX009 (ip), vehicle: saline): 113 % of control
- T/C (dose: 0.5 mg/kg/injection, schedule: Q01DX009 (ip), vehicle: water): 150 % of control and 154 % of control
- T/C (dose: 1.0 mg/kg/injection, schedule: Q01DX009 (ip), vehicle: water): 166 % of control
- T/C (dose: 63.0 micrograms/kg/injection, schedule: Q01DX009 (ip), vehicle: saline): 121 % of control
- T/C (dose: 250.0 micrograms/kg/injection, schedule: Q01DX009 (ip), vehicle: saline): 150 % of control
- T/C (dose: 500.0 micrograms/kg/injection, schedule: Q01DX009 (ip), vehicle: saline): 151 % of control
- T/C (dose: 1000.0 micrograms/kg/injection, schedule: Q01DX009 (ip), vehicle: saline): 155 % of control

SMILES: COc1cc([C@@H]2c3cc4c(cc3C[C@H]3COC(=O)[C@@H]32)OCO4)cc(OC)c1OC
- T/C (dose: 5.0 mg/kg/injection, schedule: Q01DX009 (ip), vehicle: saline): 107 % of control
- T/C (dose: 10.0 mg/kg/injection, schedule: Q01DX009 (ip), vehicle: saline): 109 % of control

SMILES: COc1cc2ccc3c(c2cc1OC)N(C)C(OC)c1cc2c(cc1-3)OCO2 (stereo unspecified)
- T/C (dose: 10.0 mg/kg/injection, schedule: Q01DX009 (ip), vehicle: saline with Tween-80): 119 % of control

SMILES: C=C1C(=O)OC2C1CCC(C)C1CCC(=O)OC12C (stereo unspecified)
- T/C (dose: 3.13 mg/kg/injection, schedule: Q01DX009 (ip), vehicle: Klucel (hydroxypropylcellulose) (HPC)): 97 % of control
- T/C (dose: 6.25 mg/kg/injection, schedule: Q01DX009 (ip), vehicle: Klucel (hydroxypropylcellulose) (HPC)): 103 % of control
- T/C [10]: 100 % of control
- T/C [11]: 101 % of control

SMILES: O=C(CN1C(=O)c2ccccc2C1=O)OC(c1ccccc1)c1ccccc1
- T/C [12]: 90 % of control
- T/C [1]: 90 % of control

SMILES: CCOC(=O)/C=C/c1c[nH]c(C(=O)OCC)c1
- T/C [12]: 102 % of control
- T/C [1]: 96 % of control
- T/C [2]: 99 % of control
- T/C [3]: 98 % of control

SMILES: CC(=O)Nc1cc(N(CCOS(C)(=O)=O)CCOS(C)(=O)=O)ccc1N=O
- T/C (dose: 75.0 micrograms/kg/injection, schedule: Q04DX003 (ip), vehicle: saline): 111 % of control
- T/C (dose: 100.0 micrograms/kg/injection, schedule: Q01DX009 (ip), vehicle: saline): 121 % of control
- T/C (dose: 150.0 micrograms/kg/injection, schedule: Q04DX003 (ip), vehicle: saline): 110 % of control
- T/C (dose: 300.0 micrograms/kg/injection, schedule: Q04DX003 (ip), vehicle: saline): 109 % of control

SMILES: O=C(Nc1cc(C(F)(F)F)ccc1Cl)c1cccc(C(=O)Nc2cc(C(F)(F)F)ccc2Cl)c1
- T/C [10]: 101 % of control
- T/C [11]: 101 % of control
- T/C [12]: 101 % of control

SMILES: N=C(N)SCc1c2ccccc2c(CSC(=N)N)c2ccccc12
- T/C [13]: 238 % of control
- T/C [9]: 285 % of control

SMILES: NC(=S)N/N=C/c1cc(-c2cccc(N)c2)ccn1
- T/C [8]: 104 % of control and 123 % of control and 124 % of control
- T/C [6]: 122 % of control
- T/C [13]: 166 % of control
- T/C [9]: 156 % of control
- T/C (dose: 37.5 mg/kg/injection, schedule: Q04DX003 (ip), vehicle: saline): 166 % of control
- T/C (dose: 75.0 mg/kg/injection, schedule: Q01DX009 (ip), vehicle: saline with Tween-80): 124 % of control
- T/C (dose: 75.0 mg/kg/injection, schedule: Q04DX003 (ip), vehicle: saline): 156 % of control
- T/C (dose: 150.0 mg/kg/injection, schedule: Q04DX003 (ip), vehicle: saline): 150 % of control
